From the supplement of paper PMC10307832

What follows are cell lines tested with COC1=CC=C(C=C1)COC2=C(C=C(C=C2)CC3=CN=C(N=C3N)N)OC [GW-2580] + O=C(c1cc(Cc2n[nH]c(=O)c3ccccc23)ccc1F)N1CCN(C(=O)C2CC2)CC1 [Olaparib] (partner 8 µM) (assay: relative viability (nuclei count vs DMSO), 5 days (fraction); higher = more cells survive). Conditions: first compound 8 µM.
In short: (§1)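 Medians of duplicate plates are given as relative viability. That measure is the nuclei count in treated wells divided by the count in vehicle wells. Counts were taken on 4× images of lung cancer cell lines in 1536-well plates, 5 days after pin-tool dosing the day after seeding with one drug alone or a fixed anchor-drug dose plus five library-drug doses (not always all listed) in √10 steps.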

Point of comparison: NCI-H1299, relative viability 0.876. Against it:
- NCI-H522 — lower, 0.602
- SW 900 — lower, 0.747
- NCI-H2009 — lower, 0.645
- NCI-H661 — lower, 0.665
- SK-LU-1 — lower, 0.503
- NCI-H1395 — lower, 0.425
- CAL-12T — lower, 0.69
- NCI-H2228 — lower, 0.635
- NCI-H2023 — lower, 0.511
- NCI-H1793 — lower, 0.804
- NCI-H1944 — lower, 0.399
- NCI-H358 — lower, 0.621

These cell lines were tested with COC1=CC=C(C=C1)COC2=C(C=C(C=C2)CC3=CN=C(N=C3N)N)OC [GW-2580] + CC(C)C[C@H](NC(=O)[C@H](Cc1ccccc1)NC(=O)c1cnccn1)B(O)O [Bortezomib] (partner 0.002 µM) in the same assay as above. Conditions: first compound 0.08 µM.
In short: as §1

Point of comparison: NCI-H727, relative viability 1.01. Against it:
- NCI-H1650 — lower, 0.218
- EBC-1 — lower, 0.609
- NCI-H1703 — lower, 0.307
- NCI-H1993 — higher, 1.27
- SW 1573 — lower, 0.903
- NCI-H838 — lower, 0.943
- LCLC-103H — higher, 1.28
- NCI-H520 — lower, 0.58
- NCI-H2126 — higher, 1.14
- EMC-BAC-2 — higher, 1.11
- NCI-H2085 — higher, 1.11
- Calu-6 — higher, 1.06
- HCC-366 — higher, 1.22
- NCI-H1666 — lower, 0.727
- NCI-H596 — lower, 0.938
- NCI-H2087 — lower, 0.966
- H3255 — lower, 0.542
- COR-L23 — higher, 1.2
- COR-L 105 — lower, 0.829
- IA-LM — lower, 0.967
- LOU-NH91 — lower, 0.522
- NCI-H2009 — higher, 1.02
- NCI-H661 — lower, 0.741
- SK-LU-1 — lower, 0.902
- NCI-H1299 — higher, 1.02
- CAL-12T — lower, 0.901
- NCI-H2228 — higher, 1.03
- NCI-H2023 — the same, 1.01
- NCI-H1563 — lower, 0.8

Same assay, conditions: first compound 0.8 µM

Point of comparison: NCI-H838, relative viability 0.831. Against it:
- NCI-H727 — higher, 1.18
- NCI-H1650 — lower, 0.232
- EBC-1 — lower, 0.572
- NCI-H1703 — lower, 0.351
- NCI-H1993 — higher, 1.33
- SW 1573 — higher, 0.932
- LCLC-103H — higher, 1.11
- NCI-H520 — higher, 0.923
- NCI-H2126 — higher, 1.24
- EMC-BAC-2 — higher, 1.16
- NCI-H2085 — higher, 1.12
- Calu-6 — higher, 1.09
- HCC-366 — higher, 1.08
- NCI-H1666 — higher, 1.2
- NCI-H596 — higher, 1.06
- NCI-H2087 — higher, 1.16
- H3255 — higher, 0.998
- COR-L23 — higher, 1.21
- COR-L 105 — higher, 0.99
- IA-LM — lower, 0.574
- LOU-NH91 — lower, 0.534
- NCI-H2009 — higher, 0.955
- NCI-H661 — lower, 0.752
- SK-LU-1 — higher, 1.42
- NCI-H1299 — higher, 0.949
- CAL-12T — higher, 1.28
- NCI-H2228 — higher, 1.1
- NCI-H2023 — higher, 1.14
- NCI-H1563 — higher, 0.986

Same assay, conditions: first compound 2.53 µM

Point of comparison: NCI-H838, relative viability 0.691. Against it:
- NCI-H727 — higher, 1.35
- NCI-H1650 — lower, 0.164
- EBC-1 — lower, 0.492
- NCI-H1703 — lower, 0.532
- SW 1573 — higher, 0.987
- LCLC-103H — higher, 1.03
- NCI-H520 — lower, 0.602
- NCI-H2126 — higher, 1.03
- EMC-BAC-2 — higher, 1.02
- NCI-H2085 — higher, 1.19
- Calu-6 — higher, 0.948
- HCC-366 — higher, 1.24
- NCI-H1666 — higher, 0.791
- NCI-H596 — higher, 1.23
- NCI-H2087 — higher, 0.79
- H3255 — lower, 0.579
- COR-L23 — higher, 0.929
- COR-L 105 — lower, 0.67
- IA-LM — higher, 0.912
- LOU-NH91 — lower, 0.468
- NCI-H2009 — higher, 0.931
- NCI-H661 — higher, 0.747
- SK-LU-1 — higher, 0.73
- NCI-H1299 — higher, 1.07
- CAL-12T — higher, 0.884
- NCI-H2228 — higher, 0.958
- NCI-H2023 — higher, 0.733
- NCI-H1563 — higher, 0.764

Same assay, conditions: first compound 8 µM

Point of comparison: COR-L 105, relative viability 0.797. Against it:
- NCI-H727 — higher, 0.835
- NCI-H1650 — lower, 0.199
- EBC-1 — lower, 0.554
- NCI-H1703 — lower, 0.335
- NCI-H1993 — higher, 0.995
- SW 1573 — higher, 0.798
- NCI-H838 — higher, 1.02
- LCLC-103H — higher, 0.96
- NCI-H520 — lower, 0.672
- NCI-H2126 — higher, 1.14
- EMC-BAC-2 — higher, 1.05
- NCI-H2085 — higher, 1.03
- Calu-6 — higher, 1.05
- HCC-366 — higher, 1.12
- NCI-H1666 — higher, 0.89
- NCI-H596 — higher, 1.01
- NCI-H2087 — higher, 0.872
- H3255 — lower, 0.749
- COR-L23 — higher, 1.2
- IA-LM — higher, 0.865
- LOU-NH91 — lower, 0.46
- NCI-H2009 — higher, 0.844
- NCI-H661 — lower, 0.676
- SK-LU-1 — higher, 1.54
- NCI-H1299 — higher, 0.941
- CAL-12T — higher, 1.16
- NCI-H2228 — higher, 0.986
- NCI-H2023 — higher, 0.904
- NCI-H1563 — higher, 0.842

These cell lines were tested with Cc1cnc(Nc2ccc(OCCN3CCCC3)cc2)nc1Nc1cccc(S(=O)(=O)NC(C)(C)C)c1 [Fedratinib] + NC(=O)Nc1cc(-c2cccc(F)c2)sc1C(=O)N[C@H]1CCCNC1 [AZD7762] (partner 0.2 µM) in the same assay as above. Conditions: first compound 0.1 µM.
In short: as §1

Point of comparison: EMC-BAC-2, relative viability 1.16. Against it:
- NCI-H2342 — lower, 0.443
- NCI-H727 — lower, 0.639
- NCI-H1703 — lower, 0.126
- NCI-H1993 — lower, 0.816
- NCI-H838 — lower, 0.961
- LCLC-103H — lower, 0.857
- NCI-H2126 — lower, 1.06
- NCI-H2085 — lower, 0.952
- HCC-366 — lower, 0.326
- NCI-H1666 — lower, 0.751
- NCI-H596 — lower, 0.965
- LK-2 — lower, 0.286
- NCI-H2087 — higher, 1.39
- NCI-H1648 — lower, 0.818
- H3255 — lower, 0.809
- LOU-NH91 — lower, 0.594
- NCI-H2170 — lower, 0.77
- NCI-H522 — lower, 0.829
